What was measured:
[1] = molecular target: Cyclin-dependent kinase 11B (Homo sapiens) (UniProt P21127); assay: Inhibition of CDK11 (unknown origin) assessed as residual activity at 100 nM by KINOMEscan analysis relative to control
[2] = tested on: Epidermal growth factor receptor (Homo sapiens), P00533 [L861Q]; assay: Inhibition of EGFR L861Q mutant (unknown origin) assessed as residual activity at 100 nM by KINOMEscan analysis relative to control
[3] = molecular target: Mitogen-activated protein kinase 4 (Homo sapiens) (UniProt P31152); assay: Inhibition of ERK4 (unknown origin) assessed as residual activity at 100 nM by KINOMEscan analysis relative to control
Chain of Mitogen-activated protein kinase 4 (Homo sapiens) (P31152 whole entry): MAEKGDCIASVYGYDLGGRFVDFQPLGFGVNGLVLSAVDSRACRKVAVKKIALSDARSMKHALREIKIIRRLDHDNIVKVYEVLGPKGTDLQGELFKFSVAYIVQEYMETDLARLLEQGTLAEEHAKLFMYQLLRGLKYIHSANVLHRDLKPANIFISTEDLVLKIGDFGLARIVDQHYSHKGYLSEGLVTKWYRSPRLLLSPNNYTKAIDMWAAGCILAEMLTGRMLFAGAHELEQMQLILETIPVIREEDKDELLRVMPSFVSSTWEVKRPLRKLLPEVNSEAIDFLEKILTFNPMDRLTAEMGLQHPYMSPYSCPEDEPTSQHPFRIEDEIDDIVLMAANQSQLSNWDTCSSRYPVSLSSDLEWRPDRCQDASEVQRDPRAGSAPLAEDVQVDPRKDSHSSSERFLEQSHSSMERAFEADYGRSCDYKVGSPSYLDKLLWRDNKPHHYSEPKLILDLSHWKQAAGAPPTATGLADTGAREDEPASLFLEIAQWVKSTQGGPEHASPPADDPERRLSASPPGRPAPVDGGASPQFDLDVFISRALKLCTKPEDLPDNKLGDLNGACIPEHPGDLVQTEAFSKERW

[4] = molecular target: Fibroblast growth factor receptor 3 (Homo sapiens) (UniProt P22607); assay: Inhibition of FGFR3 (unknown origin) assessed as residual activity at 100 nM by KINOMEscan analysis relative to control
Chain of Fibroblast growth factor receptor 3 (Homo sapiens) (P22607 23-806 limits assumed): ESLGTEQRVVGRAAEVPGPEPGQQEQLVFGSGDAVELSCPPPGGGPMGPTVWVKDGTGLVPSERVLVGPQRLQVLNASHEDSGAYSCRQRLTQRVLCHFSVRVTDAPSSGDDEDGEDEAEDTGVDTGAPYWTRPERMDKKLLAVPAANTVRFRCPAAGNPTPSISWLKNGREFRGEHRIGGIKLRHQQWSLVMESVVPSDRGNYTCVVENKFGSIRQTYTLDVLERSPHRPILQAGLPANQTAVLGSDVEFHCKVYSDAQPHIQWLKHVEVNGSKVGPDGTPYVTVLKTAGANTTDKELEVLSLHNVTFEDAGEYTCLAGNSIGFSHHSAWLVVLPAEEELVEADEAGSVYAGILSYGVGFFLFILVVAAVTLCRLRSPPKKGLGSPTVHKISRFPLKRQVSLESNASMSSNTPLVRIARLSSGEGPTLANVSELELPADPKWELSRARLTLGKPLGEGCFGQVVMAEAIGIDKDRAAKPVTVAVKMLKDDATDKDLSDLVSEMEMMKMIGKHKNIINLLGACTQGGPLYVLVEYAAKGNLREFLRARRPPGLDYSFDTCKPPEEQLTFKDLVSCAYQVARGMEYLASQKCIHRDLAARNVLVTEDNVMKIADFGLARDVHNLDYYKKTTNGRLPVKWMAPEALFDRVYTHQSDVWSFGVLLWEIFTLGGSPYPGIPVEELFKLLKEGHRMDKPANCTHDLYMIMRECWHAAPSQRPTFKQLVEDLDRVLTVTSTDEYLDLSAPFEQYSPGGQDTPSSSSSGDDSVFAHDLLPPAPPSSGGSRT

[5] = molecular target: T1, Inhibitor of nuclear factor kappa-B kinase subunit beta (Homo sapiens) (UniProt O14920); assay: Inhibition of IKK-beta (unknown origin) assessed as residual activity at 100 nM by KINOMEscan analysis relative to control
T1 sequence (whole entry): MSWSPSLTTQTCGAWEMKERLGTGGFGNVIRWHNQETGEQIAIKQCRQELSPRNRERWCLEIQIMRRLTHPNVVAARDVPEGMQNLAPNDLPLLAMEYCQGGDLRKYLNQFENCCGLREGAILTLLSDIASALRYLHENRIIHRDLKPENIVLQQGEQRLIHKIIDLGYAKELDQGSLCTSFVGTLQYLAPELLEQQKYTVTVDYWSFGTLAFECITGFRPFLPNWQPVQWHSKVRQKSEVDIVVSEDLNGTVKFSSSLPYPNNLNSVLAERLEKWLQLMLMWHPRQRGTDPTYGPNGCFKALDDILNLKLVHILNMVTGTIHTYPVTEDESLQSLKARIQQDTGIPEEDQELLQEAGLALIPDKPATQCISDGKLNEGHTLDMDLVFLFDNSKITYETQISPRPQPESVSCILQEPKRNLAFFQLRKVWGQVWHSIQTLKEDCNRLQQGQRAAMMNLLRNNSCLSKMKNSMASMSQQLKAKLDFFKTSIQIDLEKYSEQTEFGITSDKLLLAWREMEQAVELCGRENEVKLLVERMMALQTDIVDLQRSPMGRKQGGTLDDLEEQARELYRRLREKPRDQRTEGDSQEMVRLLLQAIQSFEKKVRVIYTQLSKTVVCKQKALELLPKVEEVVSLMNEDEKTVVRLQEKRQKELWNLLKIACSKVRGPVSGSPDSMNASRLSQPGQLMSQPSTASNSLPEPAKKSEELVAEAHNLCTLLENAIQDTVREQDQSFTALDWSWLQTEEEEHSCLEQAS

[6] = molecular target: Tyrosine-protein kinase JAK2 (Homo sapiens) (UniProt O60674); assay: Inhibition of JAK2 JH1 catalytic domain (unknown origin) assessed as residual activity at 100 nM by KINOMEscan analysis relative to control
Chain of Tyrosine-protein kinase JAK2 (Homo sapiens) (O60674 whole entry, the tested form may be a part): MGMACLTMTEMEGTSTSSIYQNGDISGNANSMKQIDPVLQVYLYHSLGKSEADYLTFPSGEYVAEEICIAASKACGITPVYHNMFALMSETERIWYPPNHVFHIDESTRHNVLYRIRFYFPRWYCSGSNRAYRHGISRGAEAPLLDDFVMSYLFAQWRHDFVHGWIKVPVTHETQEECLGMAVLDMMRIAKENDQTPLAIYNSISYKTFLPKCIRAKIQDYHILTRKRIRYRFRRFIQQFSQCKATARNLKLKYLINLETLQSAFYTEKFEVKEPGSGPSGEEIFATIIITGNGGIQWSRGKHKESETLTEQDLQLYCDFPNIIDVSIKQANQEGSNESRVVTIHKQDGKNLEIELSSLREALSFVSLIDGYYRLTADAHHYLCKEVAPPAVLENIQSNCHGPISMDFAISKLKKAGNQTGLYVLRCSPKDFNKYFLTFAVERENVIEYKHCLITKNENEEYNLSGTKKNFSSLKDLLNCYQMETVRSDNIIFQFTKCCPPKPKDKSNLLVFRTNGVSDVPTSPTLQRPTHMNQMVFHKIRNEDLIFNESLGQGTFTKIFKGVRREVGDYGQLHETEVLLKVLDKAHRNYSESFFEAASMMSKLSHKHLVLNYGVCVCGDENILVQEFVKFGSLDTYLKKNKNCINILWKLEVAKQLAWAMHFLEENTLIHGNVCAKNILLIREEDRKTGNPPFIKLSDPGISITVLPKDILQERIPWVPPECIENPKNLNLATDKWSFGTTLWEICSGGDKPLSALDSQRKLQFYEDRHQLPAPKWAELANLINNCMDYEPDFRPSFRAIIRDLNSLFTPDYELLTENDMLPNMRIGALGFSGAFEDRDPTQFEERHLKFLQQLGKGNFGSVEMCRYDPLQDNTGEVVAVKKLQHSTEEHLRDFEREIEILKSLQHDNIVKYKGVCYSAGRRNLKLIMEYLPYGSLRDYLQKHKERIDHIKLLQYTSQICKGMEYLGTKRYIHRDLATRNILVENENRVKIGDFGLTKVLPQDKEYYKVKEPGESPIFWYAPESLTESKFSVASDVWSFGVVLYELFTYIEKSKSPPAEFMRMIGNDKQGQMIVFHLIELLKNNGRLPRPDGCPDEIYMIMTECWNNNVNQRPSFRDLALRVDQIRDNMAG

[7] = molecular target: T2, Mitogen-activated protein kinase kinase kinase kinase 3 (Homo sapiens) (UniProt Q8IVH8); assay: Inhibition of MAP4K3 (unknown origin) assessed as residual activity at 100 nM by KINOMEscan analysis relative to control
T2 sequence (whole entry): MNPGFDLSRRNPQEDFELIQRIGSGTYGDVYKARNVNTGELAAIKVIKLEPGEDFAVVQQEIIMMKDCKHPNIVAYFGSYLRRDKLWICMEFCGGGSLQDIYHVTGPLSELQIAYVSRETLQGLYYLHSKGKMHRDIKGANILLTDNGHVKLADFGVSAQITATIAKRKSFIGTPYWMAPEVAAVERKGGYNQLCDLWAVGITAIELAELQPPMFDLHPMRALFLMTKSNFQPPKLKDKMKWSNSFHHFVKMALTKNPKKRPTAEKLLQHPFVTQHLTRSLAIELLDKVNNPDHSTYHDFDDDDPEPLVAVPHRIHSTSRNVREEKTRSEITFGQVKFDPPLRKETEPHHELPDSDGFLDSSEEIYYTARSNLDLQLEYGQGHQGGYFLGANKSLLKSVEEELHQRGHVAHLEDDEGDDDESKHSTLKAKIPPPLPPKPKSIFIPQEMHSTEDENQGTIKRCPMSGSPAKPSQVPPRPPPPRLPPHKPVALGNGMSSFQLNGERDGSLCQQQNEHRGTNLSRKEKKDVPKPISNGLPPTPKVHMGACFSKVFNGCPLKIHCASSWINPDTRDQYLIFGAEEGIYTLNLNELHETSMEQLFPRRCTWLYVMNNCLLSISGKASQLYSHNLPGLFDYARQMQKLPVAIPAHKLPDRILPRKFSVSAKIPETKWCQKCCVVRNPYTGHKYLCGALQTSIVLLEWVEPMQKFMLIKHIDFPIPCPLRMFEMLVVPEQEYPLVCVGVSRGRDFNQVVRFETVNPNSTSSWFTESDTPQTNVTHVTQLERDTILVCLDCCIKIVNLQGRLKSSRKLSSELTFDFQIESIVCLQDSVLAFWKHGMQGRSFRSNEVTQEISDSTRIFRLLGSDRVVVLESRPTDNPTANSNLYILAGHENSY

[8] = molecular target: Serine/threonine-protein kinase MARK2 (Homo sapiens) (UniProt Q7KZI7); assay: Inhibition of MARK2 (unknown origin) assessed as residual activity at 100 nM by KINOMEscan analysis relative to control
Chain of Serine/threonine-protein kinase MARK2 (Homo sapiens) (Q7KZI7 whole entry): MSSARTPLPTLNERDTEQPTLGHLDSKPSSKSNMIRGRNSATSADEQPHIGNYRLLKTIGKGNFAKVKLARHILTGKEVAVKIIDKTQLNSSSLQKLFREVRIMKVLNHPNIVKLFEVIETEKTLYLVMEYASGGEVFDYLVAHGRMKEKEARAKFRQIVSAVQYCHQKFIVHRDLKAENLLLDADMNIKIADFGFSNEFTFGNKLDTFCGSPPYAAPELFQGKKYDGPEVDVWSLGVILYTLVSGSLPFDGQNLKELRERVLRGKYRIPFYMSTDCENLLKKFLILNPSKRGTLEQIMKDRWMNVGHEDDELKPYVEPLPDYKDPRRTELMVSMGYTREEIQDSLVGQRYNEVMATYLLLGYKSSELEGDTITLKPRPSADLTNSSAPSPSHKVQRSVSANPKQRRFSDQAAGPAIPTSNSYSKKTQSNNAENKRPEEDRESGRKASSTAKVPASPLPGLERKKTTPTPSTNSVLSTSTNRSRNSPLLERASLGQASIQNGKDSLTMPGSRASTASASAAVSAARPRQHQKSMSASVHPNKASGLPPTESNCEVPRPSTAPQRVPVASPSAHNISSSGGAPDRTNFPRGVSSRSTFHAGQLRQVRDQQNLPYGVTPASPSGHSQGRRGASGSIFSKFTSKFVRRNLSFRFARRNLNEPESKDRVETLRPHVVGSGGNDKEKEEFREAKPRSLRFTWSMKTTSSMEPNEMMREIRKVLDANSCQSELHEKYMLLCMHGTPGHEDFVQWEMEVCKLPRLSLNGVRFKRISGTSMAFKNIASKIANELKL

[9] = molecular target: Serine/threonine-protein kinase VRK2 (Homo sapiens) (UniProt Q86Y07); assay: Inhibition of VRK2 (unknown origin) assessed as residual activity at 100 nM by KINOMEscan analysis relative to control
Chain of Serine/threonine-protein kinase VRK2 (Homo sapiens) (Q86Y07 whole entry): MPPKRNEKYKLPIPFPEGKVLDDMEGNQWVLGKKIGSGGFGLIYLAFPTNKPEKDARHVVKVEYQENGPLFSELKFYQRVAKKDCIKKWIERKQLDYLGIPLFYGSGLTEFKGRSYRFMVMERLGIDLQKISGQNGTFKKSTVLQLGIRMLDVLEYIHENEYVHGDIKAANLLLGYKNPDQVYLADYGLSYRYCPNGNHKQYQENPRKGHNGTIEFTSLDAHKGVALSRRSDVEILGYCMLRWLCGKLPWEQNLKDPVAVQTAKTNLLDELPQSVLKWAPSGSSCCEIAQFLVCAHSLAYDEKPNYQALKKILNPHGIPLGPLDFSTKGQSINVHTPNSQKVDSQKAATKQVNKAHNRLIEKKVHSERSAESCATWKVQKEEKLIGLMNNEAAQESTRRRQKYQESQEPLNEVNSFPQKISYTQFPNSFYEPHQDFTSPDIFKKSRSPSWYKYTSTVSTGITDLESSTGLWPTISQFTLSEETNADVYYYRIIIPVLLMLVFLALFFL

Chain of Cyclin-dependent kinase 11B (Homo sapiens) (P21127 whole entry): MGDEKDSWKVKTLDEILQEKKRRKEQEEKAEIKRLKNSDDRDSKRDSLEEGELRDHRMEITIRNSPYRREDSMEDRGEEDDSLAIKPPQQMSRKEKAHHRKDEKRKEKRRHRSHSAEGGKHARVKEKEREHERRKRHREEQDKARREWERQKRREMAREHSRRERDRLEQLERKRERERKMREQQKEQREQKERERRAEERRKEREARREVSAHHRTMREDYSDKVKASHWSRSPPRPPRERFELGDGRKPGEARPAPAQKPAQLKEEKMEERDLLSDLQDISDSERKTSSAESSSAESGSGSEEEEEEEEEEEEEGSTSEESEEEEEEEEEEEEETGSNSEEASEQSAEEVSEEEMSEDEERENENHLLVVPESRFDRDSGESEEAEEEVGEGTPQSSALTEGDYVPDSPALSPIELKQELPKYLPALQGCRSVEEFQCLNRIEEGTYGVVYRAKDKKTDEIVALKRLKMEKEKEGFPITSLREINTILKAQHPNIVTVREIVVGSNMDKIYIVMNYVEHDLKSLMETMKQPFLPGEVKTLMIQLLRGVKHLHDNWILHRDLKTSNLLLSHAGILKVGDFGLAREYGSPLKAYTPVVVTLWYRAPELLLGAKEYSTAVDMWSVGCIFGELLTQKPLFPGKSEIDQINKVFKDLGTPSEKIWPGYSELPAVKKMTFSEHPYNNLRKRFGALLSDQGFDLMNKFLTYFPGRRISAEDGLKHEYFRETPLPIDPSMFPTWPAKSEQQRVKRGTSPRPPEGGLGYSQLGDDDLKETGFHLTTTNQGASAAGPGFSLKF

COc1cc2ncnc(N[C@H](C)c3cccc4ccccc34)c2cc1OC
Activity [1]: 100%
Activity [2]: 95%
Activity [3]: 100%
Activity [4]: 72%
Activity [5]: 84%
Activity [6]: 93%
Activity [7]: 85%
Activity [8]: 82%
Activity [9]: 72%

Reference: ChEMBL document CHEMBL5678818, “Discovery of potent SOS1 inhibitors that block RAS activation via disruption of the RAS-SOS1 interaction” (Proc Natl Acad Sci U S A, 2019)
